{"source": "paper PMC10693532", "about": "“The cardiac glycoside ZINC253504760 induces parthanatos-type cell death and G2/M arrest via downregulation of MEK1/2 phosphorylation in leukemia cells” (Cell Biology and Toxicology, 2023)", "key": {"MEK1": {"target": "T1, MEK1 (Homo sapiens, UniProt Q02750)", "T1 construct": "gene MAP2K1", "T1 sequence (Q02750 whole entry)": "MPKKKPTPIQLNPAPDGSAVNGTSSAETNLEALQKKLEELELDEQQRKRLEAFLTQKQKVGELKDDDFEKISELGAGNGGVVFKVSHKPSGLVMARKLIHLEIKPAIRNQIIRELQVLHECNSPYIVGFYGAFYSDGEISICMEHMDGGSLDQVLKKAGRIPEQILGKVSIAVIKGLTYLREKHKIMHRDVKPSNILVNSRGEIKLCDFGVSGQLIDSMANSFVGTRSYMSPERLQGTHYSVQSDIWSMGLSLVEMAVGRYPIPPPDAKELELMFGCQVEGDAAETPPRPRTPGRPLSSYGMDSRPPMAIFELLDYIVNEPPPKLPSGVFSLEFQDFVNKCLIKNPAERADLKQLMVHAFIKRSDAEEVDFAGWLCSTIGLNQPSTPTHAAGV", "assay": "microscale thermophoresis, labelled recombinant human MEK1", "type": "binding"}, "MEK2": {"target": "T2, MEK2 (Homo sapiens, UniProt P36507)", "T2 construct": "gene MAP2K2", "T2 sequence (P36507 whole entry)": "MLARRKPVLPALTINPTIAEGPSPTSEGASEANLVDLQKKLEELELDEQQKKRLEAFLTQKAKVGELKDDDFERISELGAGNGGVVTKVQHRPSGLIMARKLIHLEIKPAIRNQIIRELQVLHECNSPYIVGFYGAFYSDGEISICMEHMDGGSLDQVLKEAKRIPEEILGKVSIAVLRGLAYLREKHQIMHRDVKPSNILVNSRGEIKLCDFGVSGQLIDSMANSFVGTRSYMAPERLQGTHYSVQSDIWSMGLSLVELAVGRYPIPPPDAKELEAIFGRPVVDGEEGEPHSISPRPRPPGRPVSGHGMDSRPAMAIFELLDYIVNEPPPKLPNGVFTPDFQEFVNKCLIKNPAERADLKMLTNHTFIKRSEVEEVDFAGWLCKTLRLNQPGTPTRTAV", "assay": "microscale thermophoresis, labelled recombinant MEK2", "type": "binding"}}, "data": [{"smiles": "C[C@H]1O[C@@H](O[C@@H]2[C@H](O)C[C@@H](O[C@@H]3[C@H](O)C[C@@H](O[C@H]4CC[C@@]5(C)[C@@H](CC[C@H]6[C@H]5C[C@@H](O)[C@]5(C)[C@H](C7=CC(=O)OC7)CC[C@]65O)C4)O[C@@H]3C)O[C@@H]2C)C[C@H](O)[C@@H]1O", "note": "[ZINC253504760, 3-[(3S,5S,8S,9R,10S,12R,13S,14S,17S)-3-[(2S,4R,5R,6R)-5-[(2R,4R,5R,6R)-5-[(2S,4S,5S,6R)-4,5-dihydroxy-6-methyloxan-2-yl]oxy-4-hydroxy-6-methyloxan-2-yl]oxy-4-hydroxy-6-methyloxan-2-yl]oxy-12,14-dihydroxy-10,13-dimethyl-1,2,3,4,5,6,7,8,9,11,12,15,16,17-tetradecahydrocyclopenta[a]henanthrene-17-yl]-2H-furan-5-one]", "values": [{"measurement": "Kd", "setting": "MEK1", "result": 500, "unit": "nM"}, {"measurement": "Kd", "setting": "MEK2", "result": 2200, "unit": "nM"}]}]}
